Experimental data published in the supplement of paper PMC5579334.
± gives the standard deviation of the averaged measurements.

Assays:
[1] = test system: HSC2 (primary human Schwann cells); assay: drug sensitivity score (DSS, CellTiter-Glo viability, 72 h) (DSS (dimensionless)); higher = more sensitive; extreme values may be limits of the assay
In short: (§1)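 Viability was scored by CellTiter-Glo ATP luminescence, scaled from vehicle to positive-control wells, with duplicates averaged where present. The cells, MPNST lines and primary human Schwann cells at 750–1000 per well, sat 72 h at 37 °C, 5% CO2, in 384-well plates preprinted with each compound at five concentrations in 10-fold steps. Four-parameter logistic fits were run on the data. These fits give drug sensitivity score and relative IC50 censored at the top concentration, and percent inhibition is reported at the top concentration.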

ST8814 = assay: as above
In short: as §1

YST-1 [2] = assay: as above
In short: as §1

S1507-2 = assay: as above
In short: as §1

HS-PSS [3] = assay: as above
In short: as §1

HS-Sch-2 [4] = assay: as above
In short: as §1

[5] = test system: HSC1 (primary human Schwann cells); assay: as above
In short: as §1

STS26T = assay: as above
In short: as §1

S462 = assay: as above
In short: as §1

YST-1 [6] = assay: relative IC50 (inflection point of fitted dose-response curve, CellTiter-Glo viability, 72 h; top asymptote may be below 50% inhibition); higher = less potent
In short: as §1

HS-PSS [7] = assay: as above
In short: as §1

HS-Sch-2 [8] = assay: as above
In short: as §1

HS-PSS [9] = assay: relative IC50 (inflection point of fitted dose-response curve, CellTox-Green cytotoxicity, 72 h; top asymptote may be below 50%); higher = less potent
In short: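 MPNST cell lines and primary human Schwann cells were incubated 72 h at 37 °C in 384-well plates holding five 10-fold compound dilutions. CellTox-Green was added before seeding at a final 1:1000 dilution and reported fluorescence from DNA released by disrupted cells. Signals were scaled to vehicle and positive-control wells, and cultures failing plate quality control were dropped. Drug sensitivity score and relative IC50 come from four-parameter logistic fits, with IC50 censored at the top concentration.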

| SMILES | relative IC50 (YST-1 [6]) | relative IC50 (HS-PSS [7]) | relative IC50 (HS-Sch-2 [8]) | relative IC50 (HS-PSS [9]) | also measured |
| --- | --- | --- | --- | --- | --- |
| CCC(C)(C)C(=O)O[C@H]1C[C@@H](C)C=C2C=C[C@H](C)[C@H](CC[C@@H]3C[C@@H](O)CC(=O)O3)[C@H]21 [Simvastatin] (max concentration tested 10000 nM) |  |  |  |  | drug sensitivity score [1]: 9.94; drug sensitivity score (ST8814): 0.23; drug sensitivity score (YST-1 [2]): 0; drug sensitivity score (S1507-2): 0.00035 ± 0.00049; drug sensitivity score (HS-PSS [3]): 3.55; drug sensitivity score (HS-Sch-2 [4]): 0; drug sensitivity score [5]: 8.22; drug sensitivity score (STS26T): 0.448; drug sensitivity score (S462): 2.409 ± 0.0062 |
| Nc1ncnc2c1c(-c1cccc(OCc3ccccc3)c1)cn2[C@H]1C[C@@H](CN2CCC2)C1 [NVP-AEW541] | 0.654 µM | 3.02 µM | 1.96 µM | 2.38 µM |  |
| O=C(O)C(=O)O.[NH-][C@@H]1CCCC[C@H]1[NH-].[Pt+2] [Oxaliplatin] | 1.97 µM | 7.51 µM | 9.67 µM | 23.2 µM |  |
| N.N.[Cl][Pt][Cl] [Cisplatin] | 5.18 µM | 4.7 µM | 1.17 µM | 2.27 µM |  |
| CN(C[C@@H]1COCCO1)S(=O)(=O)Nc1ccc2ccc3ncc(-c4cnn(C)c4)cc3c(=O)c2c1 [MK-2461] | 1.68 µM | 4.1 µM | 3.48 µM | > 10 µM |  |
| CCCCc1nc2cc(/C=C/C(=O)NO)ccc2n1CCN(CC)CC [Pracinostat] | 0.121 µM | 0.728 µM | 0.429 µM | 1.63 µM |  |
| CC[C@H](C)C(=O)O[C@H]1C[C@@H](C)C=C2C=C[C@H](C)[C@H](CC[C@@H]3C[C@@H](O)CC(=O)O3)[C@H]21 [Lovastatin] | > 10 µM | > 10 µM | > 10 µM | > 10 µM |  |
| CN(CC(=O)N(Cc1ccc(C2CCCCC2)cc1)c1ccc(C(=O)O)cc1)S(=O)(=O)c1c(F)c(F)c(F)c(F)c1F [SH-4-54] | 3.26 µM | 7.51 µM | 5.27 µM | 7.28 µM |  |
| Cn1nccc1Nc1nccc(-c2ccn([C@H](CO)c3ccc(Cl)c(F)c3)c(=O)c2)n1 [GDC-0994] | 4.28 µM | > 10 µM | 2.76 µM | > 10 µM |  |
| CCN(CC)CCCC(C)Nc1ccnc2cc(Cl)ccc12 (centres undefined) [Chloroquine] | 14.7 µM | 2.73 µM | 3.75 µM | 8.35 µM |  |
| CN1CCC(CNc2ccc3ncc(-c4cccc(OC(F)(F)F)c4)n3n2)CC1 [SGI-1776] | 1.66 µM | 2.47 µM | 2.37 µM | 2.51 µM |  |
| c1ccc(Cn2c(-c3ccc(OC[C@H](C4CCNCC4)n4c(-c5ccccc5)nc5ccccc54)cc3)nc3ccccc32)cc1 [deltarasin] | 3.36 µM | 2.47 µM | 3.06 µM | 2.47 µM |  |
| NC[C@@](O)(c1ccc(Cl)cc1)c1ccc(-c2cn[nH]c2)cc1 | 2.97 µM | 2.03 µM | 1.51 µM | 2.78 µM |  |
| Cc1cc(OCc2nnc(SC3CCCC3)n2-c2cccnc2)ccc1-c1ccc(S(C)(=O)=O)cc1 [NMS-873] | 1.49 µM | 0.101 µM | 0.193 µM | 2.95 µM |  |
| C[C@@H]1C[C@H]2O[C@@H]2/C=C\C=C\C(=O)Cc2c(Cl)c(O)cc(O)c2C(=O)O1 [Radicicol] | 0.81 µM | 0.545 µM | 0.353 µM | 1.14 µM |  |
| O=C(NOCCO)c1ccc2cncn2c1Nc1ccc(I)cc1F [GDC-0623] | > 2.5 µM | 0.3 µM | 0.368 µM | > 2.5 µM |  |
| CCCC(CCC)C(=O)O [Valproic acid] | 306 µM | > 1000 µM | > 1000 µM | > 1000 µM |  |
| CCCOc1ccn2c(C(C)=O)cc(-c3ccccc3S(C)(=O)=O)c2c1 [GSK2801] | > 10 µM | > 10 µM | > 10 µM | > 10 µM |  |
| Cc1cnc(Nc2ccc(OCCN3CCCC3)cc2)nc1Nc1cccc(S(=O)(=O)NC(C)(C)C)c1 [Fedratinib] | 1.52 µM | 1.44 µM | 1.18 µM | 3.37 µM |  |
| S=C(NCc1ccc2c(c1)OCO2)N1CCN(c2ncnc3c2oc2ccccc23)CC1 [Amuvatinib] | 3.54 µM | 1.01 µM | 2.07 µM | > 10 µM |  |
| NCCNc1ccc(NCCN)c2c1C(=O)c1ccncc1C2=O [Pixantrone] | 3.3 µM | 3 µM | 3.48 µM | > 10 µM |  |
| COc1cc(C(=O)O)ccc1NC(=O)[C@@H]1N[C@@H](CC(C)(C)C)[C@](C#N)(c2ccc(Cl)cc2F)[C@H]1c1cccc(Cl)c1F [Idasanutlin] | 0.062 µM | 0.178 µM | > 10 µM | > 10 µM |  |
| Cc1nc(Nc2n[nH]c3c2CN(C(=O)N[C@H](CN(C)C)c2ccccc2)C3(C)C)c2sccc2n1 | 0.067 µM | 0.0225 µM | 0.413 µM | 0.127 µM |  |
| Cc1nc(N)sc1-c1ccnc(Nc2ccc(N3CCOCC3)cc2)n1 [CYC-116] | 0.51 µM | 1.39 µM | 1.58 µM | > 10 µM |  |
| COc1cc2c(Nc3ccc(Cl)c(Cl)c3F)ncnc2cc1OC[C@H]1C[C@@H]2CN(C)C[C@@H]2C1 [XL-647] | 0.101 µM | 0.406 µM | 0.367 µM | > 1 µM |  |
| CC(C)c1cc(C(=O)N2Cc3ccc(CN4CCN(C)CC4)cc3C2)c(O)cc1O [Onalespib] | 0.105 µM | 0.114 µM | 0.037 µM | 0.0627 µM |  |

| SMILES | relative IC50 (YST-1 [6]) | relative IC50 (HS-PSS [7]) | relative IC50 (HS-Sch-2 [8]) | relative IC50 (HS-PSS [9]) | also measured |
| --- | --- | --- | --- | --- | --- |
| O=C(Nc1cccc(Nc2ncc(Br)c(NCCc3cnc[nH]3)n2)c1)N1CCCC1 [BX-912] | 0.867 µM | 1.93 µM | 2.75 µM | > 10 µM |  |
| C[C@@H](Oc1ccc2[nH]nc(/C=C/c3cnn(CCO)c3)c2c1)c1c(Cl)cncc1Cl | 0.114 µM | 0.187 µM | 0.118 µM | 0.245 µM |  |
| CNc1ncc2cc(-c3cc(NC(=O)NCCC(C)(C)C)c(F)cc3C)c(C)nc2n1 | 0.561 µM | 3.82 µM | 0.235 µM | 3.59 µM |  |
| C=CC(=O)Nc1cccc(Nc2nc(Nc3ccc(N4CCN(C(C)=O)CC4)cc3OC)ncc2C(F)(F)F)c1 [Rociletinib] | 1.61 µM | 3.1 µM | 2.82 µM | 2.98 µM |  |
| Cc1ccc(C(=O)Nc2ccc(Oc3cc4cnn(C)c4cc3-c3cn[nH]c3)c(F)c2)c(=O)n1-c1ccc(F)cc1 [Merestinib] | 0.15 µM | 0.245 µM | 0.371 µM | > 1 µM |  |
| CC(C)(O)CC(=O)NCCn1ccc2ncnc(Nc3ccc(Oc4cccc(C(F)(F)F)c4)c(Cl)c3)c21 [TAK-285] | > 2.5 µM | > 2.5 µM | > 2.5 µM | > 2.5 µM |  |
| Nc1cc(F)ccc1NC(=O)/C=C/c1cnn(C/C=C/c2ccccc2)c1 [RGFP966] | 1.57 µM | 0.378 µM | 1.75 µM | > 10 µM |  |
| N#Cc1ccc2[nH]c(O)c(-c3ccc(CN4CCOCC4)cn3)c2c1 [AZD-1080] | > 10 µM | 2.38 µM | 3.63 µM | > 10 µM |  |
| N[C@@H](Cc1ccc(N(CCCl)CCCl)cc1)C(=O)O [Melphalan] | > 12.5 µM | > 12.5 µM | > 12.5 µM | > 12.5 µM |  |
| COc1cc(N2CCC(N3CCN(C)CC3)CC2)ccc1Nc1ncnc(Nc2ccccc2S(=O)(=O)C(C)C)n1 [ASP3026] | > 10 µM | > 10 µM | > 10 µM | > 10 µM |  |
| CNC(=O)c1ccc2cc([C@@]3(O)CCn4cncc43)ccc2c1 [Orteronel] | > 10 µM | > 10 µM | > 10 µM | > 10 µM |  |
| CNC(=O)c1ccc(C)c(-n2c(C)cc(OCc3ccc(F)cc3F)c(Br)c2=O)c1 | 0.0446 µM | > 1 µM | > 1 µM | > 1 µM |  |
| CN(C)C1CCN(C(=O)c2ccc(NC(=O)Nc3ccc(-c4nc(N5CCOCC5)nc(N5CCOCC5)n4)cc3)cc2)CC1 [Gedatolisib] | 0.0164 µM | 0.00908 µM | 0.0472 µM | > 1 µM |  |
| CCCCCCCCCCCCCCCCCCOP(=O)([O-])OC1CC[N+](C)(C)CC1 [Perifosine] | > 2.5 µM | > 2.5 µM | > 2.5 µM | > 2.5 µM |  |
| COc1c(OCCCN2CCOCC2)ccc2c1N=C(NC(=O)c1cnc(N)nc1)N1CCN=C21 [Copanlisib] | 0.0221 µM | 0.405 µM | 0.113 µM | > 1 µM |  |
| Cc1cc(-c2ncc(CC(=O)Nc3ccc(-c4cnccn4)cn3)cc2C)ccn1 [NVP-LGK974] | > 10 µM | 1.97 µM | 2.92 µM | > 10 µM |  |
| CCc1c2c(nc3ccc(O)cc13)-c1cc3c(c(=O)n1C2)COC(=O)[C@]3(O)CC [SN-38] | 0.00463 µM | 0.036 µM | 0.00922 µM | 0.0297 µM |  |
| O=C(O)c1ccc(CN2CCC(CN[C@@H]3C[C@H]3c3ccccc3)CC2)cc1 | > 10 µM | > 10 µM | > 10 µM | > 10 µM |  |
| COc1cc(Nc2ncc(F)c(Nc3ccc4c(n3)N(COP(=O)(O)O)C(=O)C(C)(C)O4)n2)cc(OC)c1OC [Fostamatinib] | 0.685 µM | 0.514 µM | 0.416 µM | > 2.5 µM |  |
| O=C1NC(=O)/C(=C/c2ccc3nccc(-c4ccncc4)c3c2)S1 | 1.17 µM | 3.06 µM | 3.38 µM | > 10 µM |  |
| COc1cccc2c1C(=O)c1c(O)c3c(c(O)c1C2=O)C[C@@](O)(/C(CO)=N/NC(=O)CCCCCN1C(=O)C=CC1=O)C[C@@H]3O[C@H]1C[C@H](N)[C@H](O)[C@H](C)O1 [Aldoxorubicin] | 0.0515 µM | 0.158 µM | 0.105 µM | 0.181 µM |  |
| CN(C)C(=O)c1cc2cnc(Nc3ccc(N4CCNCC4)cn3)nc2n1C1CCCC1 [Ribociclib] | 1.53 µM | 2.03 µM | 1.61 µM | > 10 µM |  |
| CN(C)c1cc2c(cc1Sc1nc3c(N)nccc3n1CCNCC(C)(C)C)OCO2 [CUDC-305] | 0.516 µM | 0.51 µM | 0.219 µM | 0.384 µM |  |
| O=c1cc(N2CCOCC2)oc2c(-c3ccccc3)cccc12 | 7.66 µM | 13.4 µM | 13.7 µM | 18.3 µM |  |
| Cc1sc2c(c1C)C(c1ccc(Cl)cc1)=N[C@@H](CC(=O)Nc1ccc(O)cc1)c1nnc(C)n1-2 [OTX015] | 0.162 µM | 0.321 µM | 0.223 µM | > 10 µM |  |
